Experimental data: PubChem BioAssay (NCI)
Several values for one entry are separate records, joined by “and”; a condition that tells them apart may be missing. Equal values may be shown once.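 Interpolation was linear, between the two tested concentrations surrounding the appropriate level; five concentrations were tested over 48 hours in 96-well plates. TGI: total growth inhibition.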

Experiments:
Test in all cases: inhibition of tumour cell growth, NCI panel, 48 h
MCF7 breast = test system: MCF7 breast
A498 renal = test system: A498 renal
MALME-3M melanoma = test system: MALME-3M melanoma
SN12C renal = test system: SN12C renal
LOX IMVI melanoma = test system: LOX IMVI melanoma
MDA-MB-435 = test system: MDA-MB-435
SK-MEL-2 melanoma = test system: SK-MEL-2 melanoma
NCI-H226 lung = test system: NCI-H226 lung
UACC-257 melanoma = test system: UACC-257 melanoma
A549 NSCLC = test system: A549 NSCLC
HCT-15 colon = test system: HCT-15 colon
EKVX NSCLC = test system: EKVX NSCLC
HT29 colon = test system: HT29 colon
MOLT-4 leukemia = test system: MOLT-4 leukemia
BT-549 breast = test system: BT-549 breast

Row | SMILES | TGI (MCF7 breast) | TGI (A498 renal) | TGI (MALME-3M melanoma) | TGI (SN12C renal) | TGI (LOX IMVI melanoma) | TGI (MDA-MB-435) | TGI (SK-MEL-2 melanoma) | TGI (NCI-H226 lung) | TGI (UACC-257 melanoma) | TGI (A549 NSCLC) | TGI (HCT-15 colon) | TGI (EKVX NSCLC) | TGI (HT29 colon) | TGI (MOLT-4 leukemia) | TGI (BT-549 breast)
1 | O=S1(=O)N=C(SCc2ccccc2)N(c2ccccc2)c2ccncc21 | > 100 µM | 59.9 µM | > 100 µM | > 100 µM | > 100 µM | > 100 µM | > 100 µM | > 100 µM | > 100 µM | > 100 µM | > 100 µM | > 100 µM | > 100 µM | > 100 µM | 94.4 µM
2 | CNC1=C(C)C(=O)C(=O)C([C@H](C)CCC=C(C)C)=C1O | > 100 µM | 62.3 µM | > 68.6 µM | > 100 µM | > 100 µM | > 100 µM | 81.9 µM | > 72.9 µM | > 100 µM | > 100 µM | > 100 µM | > 100 µM | > 100 µM | > 48.5 µM | > 100 µM
3 | OC1(c2cccs2)c2cccc(Cl)c2C(O)(c2cccs2)c2c(Cl)cccc21 (centres undefined) | > 100 µM | > 100 µM | > 100 µM | > 100 µM | > 100 µM | > 100 µM | > 100 µM | > 100 µM | > 100 µM | > 100 µM | > 100 µM | > 100 µM | > 100 µM | > 100 µM | > 100 µM
4 | Cn1c2ccccc2c2c(-c3ccccc3)cc3c(c21)C(=O)C=CC3=O | 4.35 µM | 6.18 µM | 4.17 µM | 5.76 µM | > 10 µM | 4.32 µM | > 7.25 µM | 5.04 µM | 4.62 µM | > 10 µM | 5.41 µM | > 8.39 µM | > 9 µM | 1.1 µM | 3.04 µM
5 | O=C1CCC2C(O)c3cc4c(cc3C(c3ccc5c(c3)OCO5)N12)OCO4 (centres undefined) | > 100 µM | > 100 µM | > 100 µM | > 100 µM | > 100 µM | > 100 µM | > 100 µM | > 100 µM | > 100 µM | > 100 µM | > 100 µM | > 100 µM | > 100 µM | > 100 µM | > 100 µM
6 | C=CCN1C(=O)/C(=C/c2ccc(OC)cc2)N=C1SC/C=C/C | > 100 µM | > 100 µM | > 100 µM | 80.6 µM | > 100 µM | > 100 µM | > 100 µM | > 100 µM | > 100 µM | > 100 µM | > 100 µM | > 100 µM | > 100 µM | 66.7 µM | > 100 µM
7 | O=C(NC1=NCC(CN2CCN(c3ccccc3)CC2)O1)Nc1ccccc1 (centres undefined) | > 100 µM | > 100 µM | > 100 µM | > 100 µM | > 100 µM | > 100 µM | > 100 µM | > 100 µM | > 100 µM | > 100 µM | > 100 µM | > 100 µM | > 100 µM | > 100 µM | > 100 µM
8 | O=C1c2cc(Cl)ccc2-n2cnnc2C2CSCN12 (centres undefined) | > 100 µM | > 100 µM | > 100 µM | > 100 µM | > 100 µM | > 100 µM | > 100 µM | > 100 µM | > 100 µM | > 100 µM | > 100 µM | > 100 µM | > 100 µM | > 100 µM | > 100 µM
9 | CCc1c2c([nH]c(=S)c1C#N)CCC2 | > 100 µM | > 100 µM | > 100 µM |  | > 100 µM | > 100 µM | > 100 µM | > 100 µM | > 100 µM | > 100 µM | > 100 µM | 75.6 µM | > 100 µM | > 100 µM | > 100 µM
10 | CC1C2(C)OC(=N)C(C#N)(C(c3ccccc3)O2)C1(C#N)C#N (centres undefined) | 49.3 µM | > 100 µM | 90.3 µM | 32 µM | 36.9 µM | > 100 µM | 42.7 µM | > 100 µM | 68.7 µM | > 100 µM | 22.9 µM | 56.6 µM | 45.8 µM | > 100 µM | > 100 µM
11 | CC1=NN(C(=O)c2ccccc2O)C(=O)/C1=C/c1ccco1 | 37.9 µM | > 100 µM | 73.1 µM | > 39.3 µM | > 75.5 µM | > 100 µM | > 100 µM | 44.4 µM | > 83.1 µM | > 100 µM | > 100 µM | 44.2 µM | > 100 µM | > 100 µM | > 100 µM
12 | COc1ccc(-c2c(C#N)c(N)n(C3OCC(OC(C)=O)C(OC(C)=O)C3OC(C)=O)c(=S)c2C#N)cc1 (centres undefined) | > 100 µM | 70.1 µM and 84.2 µM | > 100 µM | > 100 µM | > 100 µM | 98.6 µM and > 100 µM | > 100 µM | > 100 µM | > 100 µM | > 100 µM | > 100 µM | > 100 µM | > 100 µM | 51.1 µM and 48 µM | 78.7 µM and 99 µM
13 | COC(=O)C1(CCC(C)=O)CCCCCC1=O (centres undefined) | > 100 µM | > 100 µM | > 100 µM | > 100 µM | > 100 µM | > 100 µM | > 100 µM | > 100 µM | > 100 µM | > 100 µM | > 100 µM | > 100 µM | > 100 µM | > 100 µM | > 100 µM
